In patent US10800792B2, “Inhibitors of Bruton's tyrosine kinase and method of their use” (JANSSEN PHARMACEUTICA NV, priority 2015, dated 2020):

Biological target: unphosphorylated-BTK kinase domain (UP-BTK), GST-tagged human BTK (389-659aa) (Homo sapiens (Human), UniProt Q06187)
Assay: BTK kinase Lanthascreen binding assay
Details: pIC50 = negative log of the IC50 in molar, 60 minutes incubation, 50 nM Tracer 236; for IC50: read-out: BTK_I_binding pIC50 (converted)
Outline: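 Compound binding to the unphosphorylated kinase domain was monitored by displacement of a fluorescently labelled tracer in a Lanthascreen format. Potency is given as pIC50, the negative log of the molar IC50.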

unphosphorylated-BTK kinase domain (UP-BTK), GST-tagged human BTK (389-659aa), sequence (Q06187 389-659): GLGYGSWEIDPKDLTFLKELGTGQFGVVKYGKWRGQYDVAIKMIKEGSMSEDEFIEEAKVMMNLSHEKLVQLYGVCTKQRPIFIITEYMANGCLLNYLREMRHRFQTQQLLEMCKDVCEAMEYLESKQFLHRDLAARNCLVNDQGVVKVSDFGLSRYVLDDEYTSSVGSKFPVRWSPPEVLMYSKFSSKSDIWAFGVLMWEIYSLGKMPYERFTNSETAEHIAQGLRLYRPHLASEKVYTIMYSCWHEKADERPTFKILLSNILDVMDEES

BTK_I_binding pIC50	IC50	Compound
7.7	–	C#CC(=O)N1CCC[C@@H](NC(=O)c2sc3nccc4c3c2NC(=O)N4c2ccc(Oc3ccccc3)cc2C)C1 [Example 161, (R)-5-(2-Methyl-4-phenoxyphenyl)-4-oxo-N-(1-propioloylpiperidin-3-yl)-4,5-dihydro-3H-1-thia-3,5,8-triazaacenaphthylene-2-carboxamide]
6.8	–	Cc1cc(Oc2ccccc2)ccc1N1C(=O)Nc2c(C(=O)NC3CCC(=O)N(C)C3)sc3nccc1c23 (centres unmarked) [Example 162, 5-(2-Methyl-4-phenoxyphenyl)-N-(1-methyl-6-oxopiperidin-3-yl)-4-oxo-4,5-dihydro-3H-1-thia-3,5,8-triazaacenaphthylene-2-carboxamide]
7.2	–	Cc1cc(Oc2ccccc2)ccc1N1C(=O)Nc2c(C(=O)N[C@@H]3CCCN(C(=O)CCN)C3)sc3nccc1c23 [Example 163, (R)—N-(1-(3-Aminopropanoyl)piperidin-3-yl)-5-(2-methyl-4-phenoxyphenyl)-4-oxo-4,5-dihydro-3H-1-thia-3,5,8-triazaacenaphthylene-2-carboxamide]
6.8	–	Cc1cc(Oc2ccccc2)ccc1N1C(=O)Nc2c(C(=O)N[C@@H]3C[C@H](F)CN(C)C3)sc3nccc1c23 [Example 164, N-((3R,5S)-5-Fluoro-1-methylpiperidin-3-yl)-5-(2-methyl-4-phenoxyphenyl)-4-oxo-4,5-dihydro-3H-1-thia-3,5,8-triazaacenaphthylene-2-carboxamide]
6.6	–	Cc1cc(Oc2ccccc2)ccc1N1C(=O)Nc2c(C(=O)NC3CCN(C)CC3C)sc3nccc1c23 (centres unmarked) [Example 165, N-(1,3-Dimethylpiperidin-4-yl)-5-(2-methyl-4-phenoxyphenyl)-4-oxo-4,5-dihydro-3H-1-thia-3,5,8-triazaacenaphthylene-2-carboxamide]
6.9	–	Cc1cc(Oc2ccccc2)ccc1N1C(=O)Nc2c(C(=O)NC3CCNC(=O)C3)sc3nccc1c23 (centres unmarked) [Example 166, 5-(2-Methyl-4-phenoxyphenyl)-4-oxo-N-(2-oxopiperidin-4-yl)-4,5-dihydro-3H-1-thia-3,5,8-triazaacenaphthylene-2-carboxamide]
7.0	–	Cc1cc(Oc2ccccc2)ccc1N1C(=O)Nc2c(C(=O)N[C@H]3CNC[C@@H](F)C3)sc3nccc1c23 [Example 167, N-((3R,5S)-5-fluoropiperidin-3-yl)-5-(2-methyl-4-phenoxyphenyl)-4-oxo-4,5-dihydro-3H-1-thia-3,5,8-triazaacenaphthylene-2-carboxamide]
6.8	–	Cc1cc(Oc2ccccc2)ccc1N1C(=O)Nc2c(C(=O)N[C@@H]3C[C@@H](O)CN(C)C3)sc3nccc1c23 [Example 168, N-((3R,5R)-5-Hydroxy-1-methylpiperidin-3-yl)-5-(2-methyl-4-phenoxyphenyl)-4-oxo-4,5-dihydro-3H-1-thia-3,5,8-triazaacenaphthylene-2-carboxamide]
7.0	–	CCc1ccccc1Oc1ccc(N2C(=O)Nc3c(C(=O)N[C@@H]4CCCN(C)C4)sc4nccc2c34)c(C)c1 [Example 170, (R)-5-(4-(2-Ethylphenoxy)-2-methylphenyl)-N-(1-methylpiperidin-3-yl)-4-oxo-4,5-dihydro-3H-1-thia-3,5,8-triazaacenaphthylene-2-carboxamide]
6.7	–	Cc1cc(Oc2ccccc2)ccc1N1C(=O)Nc2c(C(=O)NC3CCNCC3C)sc3nccc1c23 (centres unmarked) [Example 172, 5-(2-Methyl-4-phenoxyphenyl)-N-(3-methylpiperidin-4-yl)-4-oxo-4,5-dihydro-3H-1-thia-3,5,8-triazaacenaphthylene-2-carboxamide]
6.6	–	Cc1cc(Oc2ccccc2)ccc1N1C(=O)Nc2c(C(=O)N[C@H]3CNCC(F)(F)C3)sc3nccc1c23 [Example 174, (R)—N-(5,5-Difluoropiperidin-3-yl)-5-(2-methyl-4-phenoxyphenyl)-4-oxo-4,5-dihydro-3H-1-thia-3,5,8-triazaacenaphthylene-2-carboxamide]
7.6	–	N#C/C(=C\C1CC1)C(=O)N1CCC[C@@H](NC(=O)c2sc3nccc4c3c2NC(=O)N4c2c(F)cc(Oc3ccccc3)cc2F)C1 [Example 175, (R,E)-N-(1-(2-Cyano-3-cyclopropylacryloyl)piperidin-3-yl)-5-(2,6-difluoro-4-phenoxyphenyl)-4-oxo-4,5-dihydro-3H-1-thia-3,5,8-triazaacenaphthylene-2-carboxamide]
–	63.1 nM	COc1ccc(N2C(=O)Nc3c(C(=O)N[C@@H]4CCCN(C(=O)/C(C#N)=[13CH]\C5CC5)C4)sc4nccc2c34)c(C)c1 [Example 176, ^13C—(R,Z)—N-(1-(2-Cyano-3-cyclopropylacryloyl)piperidin-3-yl)-5-(4-methoxy-2-methylphenyl)-4-oxo-4,5-dihydro-3H-1-thia-3,5,8-triazaacenaphthylene-2-carboxamide]
–	39.8 nM	COc1ccc(N2C(=O)Nc3c(C(=O)N[C@@H]4CCCN(C(=O)/C(C#N)=[13CH]/C5CC5)C4)sc4nccc2c34)c(C)c1 [Example 177, ^13C—(R,E)-N-(1-(2-Cyano-3-cyclopropylacryloyl)piperidin-3-yl)-5-(4-methoxy-2-methylphenyl)-4-oxo-4,5-dihydro-3H-1-thia-3,5,8-triazaacenaphthylene-2-carboxamide]
7.0	–	Cc1cc(Oc2ccccc2)ccc1N1C(=O)Nc2c(C(=O)N[C@H]3CNC[C@H](O)C3)sc3nccc1c23 [Example 179, N-((3R,5R)-5-Hydroxypiperidin-3-yl)-5-(2-methyl-4-phenoxyphenyl)-4-oxo-4,5-dihydro-3H-1-thia-3,5,8-triazaacenaphthylene-2-carboxamide]
7.1	–	N#CCC(=O)N1CCC[C@@H](NC(=O)c2sc3nccc4c3c2NC(=O)N4c2ccc(Oc3ccccc3)cc2)C1 [Example 181, (R)—N-(1-(2-Cyanoacetyl)piperidin-3-yl)-4-oxo-5-(4-phenoxyphenyl)-4,5-dihydro-3H-1-thia-3,5,8-triazaacenaphthylene-2-carboxamide]

The next lines start with the compound.

Compound	BTK_I_binding pIC50	IC50
Cc1cc(Oc2ccccc2)ccc1N1C(=O)Nc2c(C(=O)N[C@@H]3CCCN(C(=O)/C(C#N)=C/C(C)(C)NC4CC4)C3)sc3nccc1c23 [Example 152, (R,E)-N-(1-(2-Cyano-4-(cyclopropylamino)-4-methylpent-2-enoyl)piperidin-3-yl)-5-(2-methyl-4-phenoxyphenyl)-4-oxo-4,5-dihydro-3H-1-thia-3,5,8-triazaacenaphthylene-2-carboxamide]	7.3	–
Cc1cc(Oc2ccccc2)ccc1N1C(=O)Nc2c(C(=O)N[C@H]3CNC[C@H]3F)sc3nccc1c23 [Example 154, N-((3S,4R)-4-Fluoropyrrolidin-3-yl)-5-(2-methyl-4-phenoxyphenyl)-4-oxo-4,5-dihydro-3H-1-thia-3,5,8-triazaacenaphthylene-2-carboxamide]	7.2	–
COC(C)CC(=O)N1CCC[C@@H](NC(=O)c2sc3nccc4c3c2NC(=O)N4c2ccc(Oc3ccccc3)cc2C)C1 (stereo partly drawn) [Example 155, N-((3R)-1-(3-Methoxybutanoyl)piperidin-3-yl)-5-(2-methyl-4-phenoxyphenyl)-4-oxo-4,5-dihydro-3H-1-thia-3,5,8-triazaacenaphthylene-2-carboxamide]	7.0	–
COC[C@H](C)C(=O)N1CCC[C@@H](NC(=O)c2sc3nccc4c3c2NC(=O)N4c2ccc(Oc3ccccc3)cc2C)C1 [Example 156, N—((R)-1-((S)-3-Methoxy-2-methylpropanoyl)piperidin-3-yl)-5-(2-methyl-4-phenoxyphenyl)-4-oxo-4,5-dihydro-3H-1-thia-3,5,8-triazaacenaphthylene-2-carboxamide]	7.1	–
CCOc1ccccc1Oc1ccc(N2C(=O)Nc3c(C(=O)N[C@@H]4CCCN(C)C4)sc4nccc2c34)c(C)c1 [Example 157, (R)-5-(4-(2-Ethoxyphenoxy)-2-methylphenyl)-N-(1-methylpiperidin-3-yl)-4-oxo-4,5-dihydro-3H-1-thia-3,5,8-triazaacenaphthylene-2-carboxamide]	6.6	–
COCC(C)C(=O)N1CCC[C@@H](NC(=O)c2sc3nccc4c3c2NC(=O)N4c2ccc(Oc3ccccc3)cc2C)C1 (stereo partly drawn) [Example 158, N-((3R)-1-(3-Methoxy-2-methylpropanoyl)piperidin-3-yl)-5-(2-methyl-4-phenoxyphenyl)-4-oxo-4,5-dihydro-3H-1-thia-3,5,8-triazaacenaphthylene-2-carboxamide]	7.1	–
Cc1cc(Oc2ccccc2)ccc1N1C(=O)Nc2c(C(=O)N[C@@H]3CCNC3)sc3nccc1c23 [Example 159, (R)-5-(2-methyl-4-phenoxyphenyl)-4-oxo-N-(pyrrolidin-3-yl)-4,5-dihydro-3H-1-thia-3,5,8-triazaacenaphthylene-2-carboxamide]	7.1	–
Cc1cc(Oc2ccccc2)ccc1N1C(=O)Nc2c(C(=O)N[C@@H]3C[C@@H](F)CN(C)C3)sc3nccc1c23 [Example 160, N-((3R,5R)-5-Fluoro-1-methylpiperidin-3-yl)-5-(2-methyl-4-phenoxyphenyl)-4-oxo-4,5-dihydro-3H-1-thia-3,5,8-triazaacenaphthylene-2-carboxamide]	6.6	–
Cc1cc(Oc2ccccc2)ccc1N1C(=O)Nc2c(C(=O)NC3CC4CCN3CC4)sc3nccc1c23 (centres unmarked) [Example 171, 5-(2-Methyl-4-phenoxyphenyl)-4-oxo-N-(quinuclidin-2-yl)-4,5-dihydro-3H-1-thia-3,5,8-triazaacenaphthylene-2-carboxamide]	7.0	–
Cc1cc(OC2CCCCC2)ccc1N1C(=O)Nc2c(C(=O)N[C@@H]3CCCN(C(=O)/C(C#N)=C/C4CC4)C3)sc3nccc1c23 [Example 178, (R,E)-N-(1-(2-Cyano-3-cyclopropylacryloyl)piperidin-3-yl)-5-(4-(cyclohexyloxy)-2-methylphenyl)-4-oxo-4,5-dihydro-3H-1-thia-3,5,8-triazaacenaphthylene-2-carboxamide]	–	100 nM
